Test results published in PubChem BioAssay AID588566 (The Scripps Research Institute Molecular Screening Center, 2011).

Target: Neuropeptides B/W receptor type 1 (Homo sapiens) (UniProt P48145)
Assay: GPR7 antagonist potency, late-stage follow-up, cell-based, fluorescence, dose response, set 5 (AID 588566)
Settings: GPR7-expressing cells, fluorescence antagonist assay

Neuropeptides B/W receptor type 1 (Homo sapiens), sequence (P48145 whole entry, looked up): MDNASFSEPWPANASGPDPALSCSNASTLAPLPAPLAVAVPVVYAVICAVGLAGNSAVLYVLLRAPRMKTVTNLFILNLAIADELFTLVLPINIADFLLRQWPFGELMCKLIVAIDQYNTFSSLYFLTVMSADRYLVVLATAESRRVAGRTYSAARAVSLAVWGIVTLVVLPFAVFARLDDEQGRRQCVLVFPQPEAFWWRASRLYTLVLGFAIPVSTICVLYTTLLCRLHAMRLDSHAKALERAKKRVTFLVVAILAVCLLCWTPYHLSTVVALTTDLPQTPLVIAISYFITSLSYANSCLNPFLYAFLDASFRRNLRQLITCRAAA

SMILES | IC50 [nM]
CCc1cccc(Oc2c(Cl)cnn(Cc3cccc4ccccc34)c2=O)c1 | 8550
COc1ccc(Oc2c(Cl)cnn(-c3nc4ccccc4c(=O)c4ccccc34)c2=O)cc1 | 2210
COc1ccc(Oc2c(Cl)cnn(C3c4ccccc4Oc4ccccc43)c2=O)cc1 | 3110

Now those with a lower IC50, led by results:

IC50 [nM] | SMILES
527 | COc1ccc(Oc2c(Cl)cnn(C3=Nc4cc(Cl)ccc4Oc4ncccc43)c2=O)cc1
834 | O=c1c(Oc2ccc3c(c2)CCC3)c(Cl)cnn1Cc1cccc2ccccc12
1790 | COc1cc(Oc2c(Cl)cnn(Cc3cccc4ccccc34)c2=O)cc(OC)c1OC
